The test system of this test is Jurkat FADD-/- TNF-alpha necroptosis, CellTiter-Glo ATP, 24 h. Nature of the test: inhibitors of TNF-alpha triggered necroptosis, potency, dose response, cell-based, Jurkat FADD-/-, duplicate IC50 (AID 463178).

pIC50: −log10 of the molar value. Calls of active or inactive are those of the source.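 The calls were made as follows: active = IC50 below a set limit in both duplicate runs and mean IC50 below a set limit; inconclusive = IC50 above a set limit in only one run; inactive = IC50 above a set limit in both runs and mean.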 A value given as a limit tells only on which side of the number the result lay.

One may read the IC50 as the midpoint of a concentration-inhibition curve. As for `CC(NC(=O)c1cc(Br)ccc1Cl)c1ccccc1` (centres undefined), the IC50 was > 20 µM (inactive).
In the case of `Cc1ccc(C(=O)NC(C#N)=C(Cl)Cl)cc1`, the IC50 was > 20 µM (inactive).
For orientation: pIC50 means the negative decadic logarithm of the IC50, by convention in mol/L. Take `O=C(Nc1ccc(Cl)c(Cl)c1)N1N=CCC1c1ccccc1` (centres undefined): the pIC50 is 4.93.
Still for that read-out and setting: the same measure for `Clc1ccc(COn2ccnc2)cc1Cl`: 5.70.
On the same count and under the same terms, the same measure for `COC(C(=O)Nc1ccc(F)c(F)c1)c1ccccc1` (centres undefined): 5.82; for `COc1ccc(NC(C)c2ccccc2)cc1` (centres undefined): 4.85.
On the same count and under the same terms, the same measure for `CC(=O)N(CC1CCCO1)c1nnc(-c2ccccn2)s1` (centres undefined): 5.01.
Regarding `COC(C(=O)Nc1ccc(S(=O)(=O)N2CCCCC2)cc1)c1ccccc1` (centres undefined), the IC50 was > 20 µM (inactive).
Take `COc1ccc(NC(=S)N2N=CCC2c2ccccc2)cc1` (centres undefined): the pIC50 was 4.89.
